Test results: patent US11470846B2, “Herbicidal pyridino-/pyrimidino-thiazoles” (SYNGENTA PARTICIPATIONS AG, priority 2014, dated 2022)

What was measured:
Assay type in all cases: in vivo
Setaria faberi (SETFA) [1] = assay: Post-emergence herbicidal activity; conditions: post-emergence application, 1000 g/Ha, evaluated after 13 days, scale 0-5
In short: (§1)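 Plants grown from seed in standard soil for 8 days in a glasshouse (24/16 °C day/night, 14 h light, 65% humidity), then sprayed with compound formulated in acetone/water (50:50) containing 0.5% Tween 20. Damage was scored after 13 days on a 0–5 scale (5 = total damage, 0 = none).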

Zea Mays (ZEAMX) [2] = assay: Post-emergence herbicidal activity; conditions: post-emergence application, 1000 g/Ha, evaluated after 13 days, scale 0-5
In short: as §1

[3] = test system: Amaranthus retroflexus (AMARE); assay: Post-emergence herbicidal activity; conditions: post-emergence application, 1000 g/Ha, evaluated after 13 days, scale 0-5
In short: as §1

[4] = test system: Abutilon theophrasti (ABUTH); assay: Post-emergence herbicidal activity; conditions: post-emergence application, 1000 g/Ha, evaluated after 13 days, scale 0-5
In short: as §1

[5] = test system: Echinochloa crus-galli (ECHCG); assay: Post-emergence herbicidal activity; conditions: post-emergence application, 1000 g/Ha, evaluated after 13 days, scale 0-5
In short: as §1

Lolium perenne (LOLPE) [6] = assay: Post-emergence herbicidal activity; conditions: post-emergence application, 1000 g/Ha, evaluated after 13 days, scale 0-5
In short: as §1

Setaria faberi (SETFA) [7] = assay: Pre-emergence herbicidal activity; conditions: pre-emergence application, 1000 g/Ha, evaluated after 13 days, scale 0-5
In short: (§2)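 Seeds sown in standard soil, sprayed one day after sowing with active ingredient formulated in acetone/water (50:50) with 0.5% Tween 20. Glasshouse at 24/16 °C day/night, 14 h light, 65% humidity, watered twice daily; damage scored after 13 days on a 0–5 scale (5 = total damage).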

Zea Mays (ZEAMX) [8] = assay: Pre-emergence herbicidal activity; conditions: pre-emergence application, 1000 g/Ha, evaluated after 13 days, scale 0-5
In short: as §2

[9] = test system: Amaranthus retroflexus (AMARE); assay: Pre-emergence herbicidal activity; conditions: pre-emergence application, 1000 g/Ha, evaluated after 13 days, scale 0-5
In short: as §2

[10] = test system: Abutilon theophrasti (ABUTH); assay: Pre-emergence herbicidal activity; conditions: pre-emergence application, 1000 g/Ha, evaluated after 13 days, scale 0-5
In short: as §2

[11] = test system: Echinochloa crus-galli (ECHCG); assay: Pre-emergence herbicidal activity; conditions: pre-emergence application, 1000 g/Ha, evaluated after 13 days, scale 0-5
In short: as §2

Lolium perenne (LOLPE) [12] = assay: Pre-emergence herbicidal activity; conditions: pre-emergence application, 1000 g/Ha, evaluated after 13 days, scale 0-5
In short: as §2

[13] = test system: Alopecurus myosuroides (ALOMY); assay: Post-emergence herbicidal activity; conditions: post-emergence application, 1000 g/Ha, evaluated after 13 days, scale 0-5
In short: as §1

Oryza sativa (ORYSA) [14] = assay: Post-emergence herbicidal activity; conditions: post-emergence application, 1000 g/Ha, evaluated after 13 days, scale 0-5
In short: as §1

Avena fatua (AVEFA) [15] = assay: Post-emergence herbicidal activity; conditions: post-emergence application, 1000 g/Ha, evaluated after 13 days, scale 0-5
In short: as §1

[16] = test system: Triticum aestivium (TRZAW); assay: Post-emergence herbicidal activity; conditions: post-emergence application, 1000 g/Ha, evaluated after 13 days, scale 0-5
In short: as §1

[17] = test system: Alopecurus myosuroides (ALOMY); assay: Pre-emergence herbicidal activity; conditions: pre-emergence application, 1000 g/Ha, evaluated after 13 days, scale 0-5
In short: as §2

Oryza sativa (ORYSA) [18] = assay: Pre-emergence herbicidal activity; conditions: pre-emergence application, 1000 g/Ha, evaluated after 13 days, scale 0-5
In short: as §2

Avena fatua (AVEFA) [19] = assay: Pre-emergence herbicidal activity; conditions: pre-emergence application, 1000 g/Ha, evaluated after 13 days, scale 0-5
In short: as §2

[20] = test system: Triticum aestivium (TRZAW); assay: Pre-emergence herbicidal activity; conditions: pre-emergence application, 1000 g/Ha, evaluated after 13 days, scale 0-5
In short: as §2

SMILES | Control of weed species, SETFA (damage score) (Setaria faberi (SETFA) [1]) | Control of weed species, ZEAMX (damage score) (Zea Mays (ZEAMX) [2]) | Control of weed species, AMARE (damage score) [3] | Control of weed species, ABUTH (damage score) [4] | Control of weed species, ECHCG (damage score) ([5]; Table 8) | Control of weed species, LOLPE (damage score) (Lolium perenne (LOLPE) [6]; Table 8) | Control of weed species, SETFA (damage score) (Setaria faberi (SETFA) [7]) | Control of weed species, ZEAMX (damage score) (Zea Mays (ZEAMX) [8]) | Control of weed species, ALOMY (damage score) [13] | Control of weed species, ORYSA (damage score) (Oryza sativa (ORYSA) [14]) | Control of weed species, AVEFA (damage score) (Avena fatua (AVEFA) [15]) | Control of weed species, TRZAW (damage score) [16] | Control of weed species, ECHCG (damage score) ([5]; Table 7) | Control of weed species, LOLPE (damage score) (Lolium perenne (LOLPE) [6]; Table 7) | Control of weed species, ALOMY (damage score) [17] | Control of weed species, ORYSA (damage score) (Oryza sativa (ORYSA) [18]) | Control of weed species, AVEFA (damage score) (Avena fatua (AVEFA) [19]) | Control of weed species, TRZAW (damage score) [20] | Control of weed species, ECHCG (damage score) ([11]; Table 5) | Control of weed species, LOLPE (damage score) (Lolium perenne (LOLPE) [12]; Table 5) | further results
C#CC(C)(C)OC(=O)N(C)c1sc(-c2cccnc2)nc1C [Compound B3, 1,1-dimethylprop-2-ynyl N-methyl-N-[4-methyl-2-(3-pyridyl)thiazol-5-yl]carbamate] | 5 | 5 | 2 | 1 | 4 | 4 | 4 | 5 | – | – | – | – | – | – | – | – | – | – | – | – | Control of weed species, AMARE (damage score) [9]: 3; Control of weed species, ABUTH (damage score) [10]: 4; Control of weed species, ECHCG (damage score) ([11]; Table 6): 3; Control of weed species, LOLPE (damage score) (Lolium perenne (LOLPE) [12]; Table 6): 3
C#CCOC(=O)N(C)c1sc(-c2cccnc2)nc1C [Compound B1, prop-2-ynyl N-methyl-N-[4-methyl-2-(3-pyridyl)thiazol-5-yl]carbamate] | 5 | 5 | 1 | 1 | 4 | 3 | 5 | 5 | – | – | – | – | – | – | – | – | – | – | – | – | Control of weed species, AMARE (damage score) [9]: 2; Control of weed species, ABUTH (damage score) [10]: 2; Control of weed species, ECHCG (damage score) ([11]; Table 6): 2; Control of weed species, LOLPE (damage score) (Lolium perenne (LOLPE) [12]; Table 6): 3
Cc1nc(-c2cncc(F)c2)sc1N(C)C(=O)OC(C)(C)C [Compound A3, tert-butyl N-[2-(5-fluoro-3-pyridyl)-4-methyl-thiazol-5-yl]-N-methyl-carbamate] | – | – | – | – | – | – | – | – | 1 | 1 | 4 | 1 | 5 | 3 | 1 | 1 | 3 | 1 | 4 | 2 | –
Cc1nc(-c2cncc(N)c2)sc1N(C)C(=O)OC(C)(C)C [Compound A11] | – | – | – | – | – | – | – | – | 1 | 1 | 1 | 2 | 2 | 1 | 1 | 2 | 1 | 2 | 2 | 0 | –
Cc1nc(-c2cncc(C(F)(F)F)c2)sc1N(C)C(=O)OC(C)(C)C [Compound A10] | – | – | – | – | – | – | – | – | 0 | 1 | 2 | 1 | 4 | 0 | 0 | 1 | 1 | 1 | 1 | 1 | –
Cc1nc(-c2cccnc2)sc1N(C)C(=O)NC(C)(C)C [Compound A21, 3-tert-butyl-1-methyl-1-[4-methyl-2-(3-pyridyl)thiazol-5-yl]urea] | – | – | – | – | – | – | – | – | 2 | 0 | 4 | 1 | 5 | 3 | 0 | 0 | 2 | 0 | 5 | 1 | –
C#CC(C)OC(=O)N(C)c1sc(-c2cccnc2)nc1C (stereo not drawn) [Compound B2, 1-methylprop-2-ynyl N-methyl-N-[4-methyl-2-(3-pyridyl)thiazol-5-yl]carbamate] | 5 | 4 | 2 | 2 | 2 | 4 | 5 | 5 | – | – | – | – | – | – | – | – | – | – | – | – | Control of weed species, AMARE (damage score) [9]: 3; Control of weed species, ABUTH (damage score) [10]: 3; Control of weed species, ECHCG (damage score) ([11]; Table 6): 1; Control of weed species, LOLPE (damage score) (Lolium perenne (LOLPE) [12]; Table 6): 3
Cc1nc(-c2cncc(C=O)c2)sc1N(C)C(=O)OC(C)(C)C [Compound A5] | – | – | – | – | – | – | – | – | 0 | 0 | 0 | 0 | 0 | 0 | 0 | 0 | 0 | 0 | 0 | 0 | –
